This assay deals with Human gelatinase. The experiment in a line: Inhibition of trypsin-activated human gelatinase, fluorogenic Mca peptide substrate. The format is biochemical. To be noted: substrate 10 μM, 37° C., 60 minutes, 5 minutes preincubation; read-out: IC50 against activated gelatinase. On the procedure: Human gelatinase was activated with trypsin as follows. A reaction mixture was prepared in Tris buffer (pH 7.5) containing 20 mM Tris-HCl, 0.15 N NaCl, 4 μg/ml trypsin, 3 nM gelatinase and 5 mM CaCl2. The reaction mixture was incubated at 37° C. for 60 minutes and then soybean trypsin inhibitor was added at 44 μg/ml to quench the reaction.
The substrate was added at final 10 μM and was then further incubated at 37° C. for 60 minutes. The reaction was terminated by the addition of 750 μl of 0.1 N sodium acetate buffer (pH 4.0). The hydrolysis of the substrate was assessed by fluorescence, excitation at 328 nm and emission of 393 nm, with a Perkin-Elmer Fluorimeter LS-50B.

Bridge positions count the residues as written; N and C are the ends. Square brackets hold non-standard residues; d marks the D form. Peptide text beside a SMILES is read from it. I, II: the chains in the order shown. * marks the point of attachment. Succinyl(2R-iBu,4-NHOH) = CC(C)C[C@H](CC(=O)NO)C(=O)*; Hyp = O=C(O)[C@@H]1C[C@@H](O)CN1; Ahx = NCCCCCC(=O)O

Regarding “I: {Succinyl(2R-iBu,4-NHOH)}-WGP[Hyp]GP[Hyp]GPPSGG[Ahx]KKG-NH2 / II: {Succinyl(2R-iBu,4-NHOH)}-WGP[Hyp]GP[Hyp]GPPSGG[Ahx] / III: {Succinyl(2R-iBu,4-NHOH)}-WGP[Hyp]GP[Hyp]GPPSGG[Ahx] (amide I:15-II:C, I:16-III:C) [NHT2-L]”, the IC50 is 0.024 µM. Regarding `CC(C)C[C@H](CC(=O)NO)C(=O)N[C@@H](Cc1c[nH]c2ccccc12)C(=O)NCC(=O)N1CCC[C@H]1C(=O)N1C[C@H](O)C[C@H]1C(=O)NCC(=O)N1CCC[C@H]1C(=O)N1CCC[C@H]1C(=O)N[C@@H](CO)C(=O)NCC(=O)NCC(=O)NCCCCCC(=O)NCCCC[C@H](NC(=O)CCCCCNC(=O)CNC(=O)CNC(=O)[C@H](CO)NC(=O)[C@@H]1CCCN1C(=O)[C@@H]1CCCN1C(=O)CNC(=O)[C@@H]1C[C@@H](O)CN1C(=O)[C@@H]1CCCN1C(=O)CNC(=O)[C@H](Cc1c[nH]c2ccccc12)NC(=O)[C@@H](CC(=O)NO)CC(C)C)C(=O)N[C@@H](CCCCNC(=O)CCCCCNC(=O)CNC(=O)CNC(=O)[C@H](CO)NC(=O)[C@@H]1CCCN1C(=O)[C@@H]1CCCN1C(=O)CNC(=O)[C@@H]1C[C@@H](O)CN1C(=O)[C@@H]1CCCN1C(=O)CNC(=O)[C@H](Cc1c[nH]c2ccccc12)NC(=O)[C@@H](CC(=O)NO)CC(C)C)C(=O)NCC(N)=O` [NHT1-L] (I: {Succinyl(2R-iBu,4-NHOH)}-WGP[Hyp]GPPSGG[Ahx]KKG-NH2 / II: {Succinyl(2R-iBu,4-NHOH)}-WGP[Hyp]GPPSGG[Ahx] / III: {Succinyl(2R-iBu,4-NHOH)}-WGP[Hyp]GPPSGG[Ahx]; amide I:12-II:C, I:13-III:C), the IC50 came out at 0.0023 µM.

A word on the IC50: it is the midpoint of a concentration-inhibition curve.

(Values after patent US6187907A, “Triple helix coil template having a biologically active ligand” (priority 1998, dated 2001).)
